System: 5α-reductase
Assay: 5α-reductase inhibitory efficacy: DHT produced in testosterone-stimulated dermal papilla cells (DHT ELISA)
Assay type: cell-based
Conditions: 50 nM testosterone, 24 hours, produced DHT relative to control
Method: After seeding 1 ml of dermal papilla cells (DPCs) by 5×10^5/ml into each well of a 24-well plate, then incubating the same for 24 hours, each of the reaction products prepared according to procedures described in Examples 1 to 72 was added in amounts of 50 μg/ml, 10 μg/ml and 0 μg/ml, respectively, to individual wells. After 1 hour, the wells were subjected to stimulation using 50 nM testosterone (DMSO dissolved). The supernatant was discarded 24 hours after culturing, to thus obtain DPc pellets. A content of dihydrotestosterone (DHT) (DB52021, Hamburg, Germany) was determined by means of enzyme-linked immune-sorbent assay. DPCs cell pellets were seeded in an amount of 100 μL into each of Dihydrotestosterone (DHT) ELISA microtiter strips coated with rabbit anti-DHT antibody, 25 μL of DHT antiserum was seeded in every well, and subjected to a reaction at 2 to 8° C. for 15 to 20 hours, followed by washing the same three times. Thereafter, 100 μL of DHT-HRP enzyme conjugate was seeded in every well and reacted on a shaker at room temperature for 30 minutes, followed by washing the same three times. Furthermore, 100 μL of substrate was seeded in every well and reacted on a shaker at room temperature for 20 to 30 minutes. Then, the product was treated using 100 μL stop solution, and subjected to measurement of absorbance at 450 nm to express an amount of produced DHT by the absorbance (three times repeated). An amount of produced DHT relative to a control was calculated in terms of an inhibitory rate (%), and results thereof are shown in Table 3 below.

Structure (SMILES)	5α-reductase inhibitory rate (%) (sample concentration 10 μg/ml)	5α-reductase inhibitory rate (%) (sample concentration 50 μg/ml)
CC1(C)CC[C@]2(C)CC[C@]3(C)C(=CC[C@@H]4[C@@]5(C)CC[C@H](O)C(C)(C)[C@@H]5CC[C@]43C)[C@@H]2C1 [Compound in Example 1, β-amyrin]	15	28
CC(=O)O[C@H]1CC[C@]2(C)[C@H]3CC=C4[C@@H]5CC(C)(C)CC[C@]5(C)CC[C@@]4(C)[C@]3(C)CC[C@H]2C1(C)C [Compound in Example 2, β-amyrin acetate]	21	34
CC(C)=CC(=O)OC1CCC2(C)C(CCC3(C)C2CC=C2C4CC(C)(C)CCC4(C)CCC23C)C1(C)C (stereo not drawn) [Compound in Example 3, β-amyrin 3-methyl-2-butenate]	28	41
CCCCC(CC)C(=O)OC1CCC2(C)C(CCC3(C)C2CC=C2C4CC(C)(C)CCC4(C)CCC23C)C1(C)C (stereo not drawn) [Compound in Example 4, β-amyrin 2-ethylhexanoate]	36	54
CCCCCCCC(=O)OC1CCC2(C)C(CCC3(C)C2CC=C2C4CC(C)(C)CCC4(C)CCC23C)C1(C)C (stereo not drawn) [Compound in Example 5, β-amyrin octanoate]	41	57
CCCCCCCCCCCCCCCC(=O)O[C@H]1CC[C@]2(C)[C@H]3CC=C4[C@@H]5CC(C)(C)CC[C@]5(C)CC[C@@]4(C)[C@]3(C)CC[C@H]2C1(C)C [Compound in Example 7, β-amyrin palmitate]	53	67
C[C@H]1[C@H](C)CC[C@]2(C)CC[C@]3(C)C(=CC[C@@H]4[C@@]5(C)CC[C@H](O)C(C)(C)[C@@H]5CC[C@]43C)[C@H]12 [Compound in Example 10, α-amyrin]	13	29
CC(=O)O[C@H]1CC[C@]2(C)[C@H]3CC=C4[C@@H]5[C@@H](C)[C@H](C)CC[C@]5(C)CC[C@@]4(C)[C@]3(C)CC[C@H]2C1(C)C [Compound in Example 11, α-amyrin acetate]	31	42
CCCCCCCC(=O)OC1CCC2(C)C(CCC3(C)C2CC=C2C4C(C)C(C)CCC4(C)CCC23C)C1(C)C (stereo not drawn) [Compound in Example 12, α-amyrin octanoate]	35	49
CC[C@H](CC[C@@H](C)[C@H]1CC[C@H]2[C@@H]3CC=C4C[C@@H](O)CC[C@]4(C)[C@H]3CC[C@]12C)C(C)C [Compound in Example 14, β-sitosterol]	11	26
CC[C@H](CC[C@@H](C)[C@H]1CC[C@H]2[C@@H]3CC=C4C[C@@H](OC(C)=O)CC[C@]4(C)[C@H]3CC[C@]12C)C(C)C [Compound in Example 15, β-sitosterol acetate]	21	29
CCCCCCCC(=O)OC1CCC2(C)C(=CCC3C2CCC2(C)C(C(C)CCC(CC)C(C)C)CCC32)C1 (stereo not drawn) [Compound in Example 16, β-sitosterol octanoate]	28	39
CCCCCCCCCCCCCCCCCC(=O)O[C@H]1CC[C@@]2(C)C(=CC[C@H]3[C@@H]4CC[C@H]([C@H](C)CC[C@@H](CC)C(C)C)[C@@]4(C)CC[C@@H]32)C1 [Compound in Example 17, β-sitosterol stearate]	31	42
C[C@H]1[C@H](C)CC[C@]2(C(=O)O)CC[C@]3(C)C(=CC[C@@H]4[C@@]5(C)CC[C@H](O)C(C)(C)[C@@H]5CC[C@]43C)[C@H]12 [Compound in Example 18, ursolic acid]	16	29
CCCCCCCC(=O)OC1CCC2(C)C(CCC3(C)C2CC=C2C4C(C)C(C)CCC4(C(=O)O)CCC23C)C1(C)C (stereo not drawn) [Compound in Example 20, ursolic acid octanoate]	31	46
CC1(C)CC[C@]2(C(=O)O)CC[C@]3(C)C(=CC[C@@H]4[C@@]5(C)CC[C@H](O)C(C)(C)[C@@H]5CC[C@]43C)[C@@H]2C1 [Compound in Example 22, oleanolic acid]	7	16
CCCCCCCC(=O)OC1CCC2(C)C(CCC3(C)C2CC=C2C4CC(C)(C)CCC4(C(=O)O)CCC23C)C1(C)C (stereo not drawn) [Compound in Example 24, oleanolic acid octanoate]	21	39

Structure (SMILES)	5α-reductase inhibitory rate (%) (sample concentration 10 μg/ml)	5α-reductase inhibitory rate (%) (sample concentration 50 μg/ml)
CC1(C)CC[C@]2(C)CC[C@]3(C)C(=CC[C@@H]4[C@@]5(C)CC[C@@H](O)[C@](C)(C(=O)O)[C@@H]5CC[C@]43C)[C@@H]2C1 [Compound in Example 26, α-boswellic acid]	10	19
CC(=O)OC1CCC2(C)C(CCC3(C)C2CC=C2C4CC(C)(C)CCC4(C)CCC23C)C1(C)C(=O)O (stereo not drawn) [Compound in Example 27, α-boswellic acid acetate]	21	29
C[C@H]1[C@H](C)CC[C@]2(C)CC[C@]3(C)C(=CC[C@@H]4[C@@]5(C)CC[C@@H](O)[C@](C)(C(=O)O)[C@@H]5CC[C@]43C)[C@H]12 [Compound in Example 29, β-boswellic acid]	11	23
CC(=O)OC1CCC2(C)C(CCC3(C)C2CC=C2C4C(C)C(C)CCC4(C)CCC23C)C1(C)C(=O)O (stereo not drawn) [Compound in Example 30, β-boswellic acid acetate]	14	29
C=C(C)[C@@H]1CC[C@]2(C(=O)O)CC[C@]3(C)[C@H](CC[C@@H]4[C@@]5(C)CC[C@H](O)C(C)(C)[C@@H]5CC[C@]43C)[C@@H]12 [Compound in Example 32, betulinic acid]	9	17
CC1(C)[C@@H](O)CC[C@]2(C)[C@H]3C(=O)C=C4[C@@H]5C[C@@](C)(C(=O)O)CC[C@]5(C)CC[C@@]4(C)[C@]3(C)CC[C@@H]12 [Compound in Example 34, glycyrrhetinic acid]	6	18
C[C@]12CC[C@H](O)CC1=CC[C@@H]1[C@@H]2CC[C@]2(C)C(=O)CC[C@@H]12 [Compound in Example 36, dihydroandrosterone]	9	28
CC(C)=CCC[C@@H](C)[C@H]1CC[C@H]2[C@@H]3CC=C4C[C@@H](O)CC[C@]4(C)[C@H]3CC[C@]12C [Compound in Example 38, desmosterol]	12	31
CC(C)CCC[C@@H](C)[C@H]1CC[C@H]2[C@@H]3CC=C4C[C@@H](O)CC[C@]4(C)[C@H]3CC[C@]12C [Compound in Example 40, cholesterol]	15	17
CCCCCCCCCCCCCCCCCC(=O)O[C@H]1CC[C@@]2(C)C(=CC[C@H]3[C@@H]4CC[C@H]([C@H](C)CCCC(C)C)[C@@]4(C)CC[C@@H]32)C1 [Compound in Example 41, cholesterol stearate]	26	39
CC[C@H](/C=C/[C@@H](C)[C@H]1CC[C@H]2[C@@H]3CC=C4C[C@@H](O)CC[C@]4(C)[C@H]3CC[C@]12C)C(C)C [Compound in Example 42, Stigmasterol]	8	24
CCCCCCCCCCCCCCCCCC(=O)O[C@H]1CC[C@@]2(C)C(=CC[C@H]3[C@@H]4CC[C@H]([C@H](C)/C=C/[C@@H](CC)C(C)C)[C@@]4(C)CC[C@@H]32)C1 [Compound in Example 43, Stigmasterol stearate]	31	41
CC(C)[C@H](C)CC[C@@H](C)[C@H]1CC[C@H]2[C@@H]3CC=C4C[C@@H](O)CC[C@]4(C)[C@H]3CC[C@]12C [Compound in Example 44, Campesterol]	11	21
CCCCCCCCCCCCCCCCCC(=O)O[C@H]1CC[C@@]2(C)C(=CC[C@H]3[C@@H]4CC[C@H]([C@H](C)CC[C@@H](C)C(C)C)[C@@]4(C)CC[C@@H]32)C1 [Compound in Example 45, Campesterol stearate]	26	43
CC(C)[C@@H](C)/C=C/[C@@H](C)[C@H]1CC[C@H]2[C@@H]3CC=C4C[C@@H](O)CC[C@]4(C)[C@H]3CC[C@]12C [Compound in Example 46, brassicasterol]	8	19
C/C=C(\CC[C@@H](C)[C@H]1CC[C@H]2[C@@H]3CC=C4C[C@@H](O)CC[C@]4(C)[C@H]3CC[C@]12C)C(C)C [Compound in Example 48, fucosterol]	12	19
